Read-outs that look alike come from different tables or passages of the source.
Legend:
[1] = test system: NCTC clone 929 (strain L) mouse areolar fibroblast cells (L929 cells); conditions: 0.5% DMSO
Method: Polymers and diacids were separately dissolved in dimethyl sulfoxide (DMSO) and diluted with cell media to reach concentrations of 0.10 and 0.05 mg/mL. These solutions were sterilized under UV at λ=254 nm for 900 s (Spectronics Corporation, Westbury, N.Y.) and then allocated to wells in a 96-well plate with 2000 cells/well. DMSO (0.5%) in cell media was used as negative control.
Cell viability was determined using CellTiter 96® Aqueous One Solution Cell Proliferation Assay. After 24 h, 48 h, and 72 h incubation with polymers or diacids, 20 μL of (3-(4,5-dimethylthiazol-2-yl)-5-(3-carboxymethoxyphenyl)-2-(4-sulfophenyl)-2H-tetrazolium) (MTS) reagent was added to each well and further incubated for 2 h at 37° C. The absorbance was then recorded with a microplate reader (Coulter, Boulevard Brea, Calif.) at 492 nm.

[2] = Structure determination of released drugs (1H-NMR of day 5 release media); type: physicochemical; conditions: released at day 5, 1H-NMR chemical shifts and integration
Method: Release media from day 5 (time point with the highest drug concentration) were freeze-dried for 24 h at −40° C. and 133×10^−3 mBar (LABCONO Freeze Dry System/Freezon 4.5). The resulting white powder was dissolved in acidic water (5 mL, pH˜1) and extracted with DCM (5×3 mL). DCM was evaporated under reduced pressure and the samples dried under vacuum for 2 days. Solutions of the free drugs (1 and 2) were prepared and treated as described above for the release media. ^1H-NMR spectroscopy was used to confirm the chemical structures of the released drugs.

Structure (SMILES)	cell proliferation / viability ([1]; 0.05 mg/mL, 24, 48 and 72 h)	cell proliferation / viability ([1]; 0.10 mg/mL, 24, 48 and 72 h)	chemical structure of drug released from polymer versus free drug [2]
CC(C)Cc1ccc(C(C)C(=O)OC(C(=O)O)C(OC(=O)C(C)c2ccc(CC(C)C)cc2)C(=O)O)cc1 (stereo not drawn) [6a, Ibuprofen-tartaric diacid]	normal cell proliferation	normal cell proliferation	–
COc1ccc2cc(C(C)C(=O)OC(C(=O)O)C(OC(=O)C(C)c3ccc4cc(OC)ccc4c3)C(=O)O)ccc2c1 (stereo not drawn) [6b, Naproxen-Tartaric Diacid]	normal cell proliferation	normal cell proliferation	–
CC(C)Cc1ccc(C(C)C(=O)O)cc1 (stereo not drawn) [compound 1, ibuprofen]	–	–	preserved
COc1ccc2cc([C@H](C)C(=O)O)ccc2c1 [compound 2, naproxen]	–	–	preserved

Source: patent US9144579B2, “Polyesters and methods of use thereof” (Rutgers, The State University of New Jersey, priority 2012, dated 2015)
